Test results reported in PMC8491704, “Pharmacokinetic study of Tangwang Mingmu granule for the management of diabetic retinopathy based on network pharmacology” (Pharmaceutical Biology, 2021).
Read-outs that look alike come from different tables or passages of the source.

Legend:
[1] = Pharmacokinetic study in SD rats after oral administration of TWMM (UPLC-QQQ-MS of plasma); format: in vivo, Sprague-Dawley (SD) rats; details: oral TWMM 9.6 g/kg
Method: Chromatographic separation was performed using an ACQUITY UPLC H-Class system equipped with a 1.8 μm HSS T3 analytical column (100 mm × 2.1 i.d., Waters Corporation, Milford, USA). […] ESI source was set to negative ionisation mode while the analysis was performed using multiple reaction monitorin. Ion spray voltage (3000 V), capillary temperature (450 °C), and the source parameters of the nine compounds are shown in Table 2.
The data obtained from the UPLC/Q-Orbitrap MS was imported into Xcalibur 4.0 software for analysis. Furthermore, the constituents acquired using GCMS-QP 2010 were profiled by comparison using the National Institute of Standards and Technology (NIST) database. The pharmacokinetic data were processed through MassLynx 4.1, and DAS 2.0 software was used to calculate the pharmacokinetic parameters according to the compartment model.
Six male SD rats (average weight: 220 ± 10 g) were acquired from Beijing Vital-River Laboratory Animal Technology Co., Ltd. All rats were acclimatized to an environmentally controlled laboratory for a week. Following this period, the rats were exposed to fasting conditions for 12 h but were allowed free access to water before the experiment. The rats were orally administered TWMM at a dose of 9.6 g/kg. Blood samples (300 µL) were collected into heparinized centrifuge tubes from the fossa orbitalis at pre-dose and 0.03, 0.08, 0.17, 0.25, 0.5, 1, 2, 4, 8, 12, 24, and 36 h intervals. The samples were immediately centrifuged at 6000 g for 10 min at 4 °C and the supernatants were transferred to clean centrifuge tubes.
Each 100 µL plasma sample was mixed with 20 µL of methanol, 20 µL of IS (5 µg/mL), and 600 µL acetonitrile. The mixtures were centrifuged at 15,000 g for 10 min at 4 °C after being vortexed for 3 min. The obtained supernatants were transferred to clean 1.5 mL centrifuge tubes, followed by evaporation under a milt nitrogen stream. Next, the obtained residues were individually redissolved in 100 µL of methanol and centrifuged at 15,000 g for 10 min at 4 °C after vortexed for 3 min. Lastly, 10 µL of individual supernatant was injected for analysis.

[2] = Stability of QC samples of 8 compounds in rat plasma (25 °C 4 h, autosampler 12 h, three freeze-thaw cycles, −80 °C 7 d); format: in vitro ADME
Method: The calibration curves were assessed at eight concentration levels using the correlation coefficient (r). The lower limit of quantification (LLOQ) could fulfil the analytical requirements and achieved reliable accuracy and precision with a signal-to-noise ratio (S/N) ≥ 10. To determine intra- and inter-day precision and accuracy, six replicate quality control (QC) samples at three concentrations were prepared. Inter- and intra-day precision was evaluated by determining relative standard deviation (RSD) values, while accuracy was expressed in terms of the relative error (RE). The extraction recoveries were determined using three concentration levels and calculated by comparing the peak area of extracted samples with post-extracted spiked samples. Subsequently, matrix effects were assessed using the peak area of post-extracted spiked samples contrasted with QC samples at the three concentration levels. The stability test of QC samples at the three concentration levels was as follows: storage at 25 °C for 4 h, storage in an autosampler for 12 h, freeze-thaw cycle for three times, and storage at −80 °C for 7 d.
The stability tests were carried out under three freeze-thaw cycles, at 25 °C for 4 h, in an autosampler for 12 h, and at −80 °C for 7 d.

[3] = QC concentration 1 ng/mL, autosampler 12 h, 4 °C, rat plasma, n = 3
[4] = QC concentration 1 ng/mL, long term 7 day, –80 °C, rat plasma, n = 3
[5] = QC concentration 1 ng/mL, room temperature 25 °C, rat plasma, n = 3
[6] = QC concentration 1 ng/mL, three freeze/thaw cycles, rat plasma, n = 3
[7] = QC concentration 10 ng/mL, autosampler 12 h, 4 °C, rat plasma, n = 3
[8] = QC concentration 10 ng/mL, long term 7 day, –80 °C, rat plasma, n = 3
[9] = QC concentration 10 ng/mL, room temperature 25 °C, rat plasma, n = 3
[10] = QC concentration 10 ng/mL, three freeze/thaw cycles, rat plasma, n = 3
[11] = QC concentration 200 ng/mL, autosampler 12 h, 4 °C, rat plasma, n = 3
[12] = QC concentration 200 ng/mL, long term 7 day, –80 °C, rat plasma, n = 3
[13] = QC concentration 200 ng/mL, room temperature 25 °C, rat plasma, n = 3
[14] = QC concentration 200 ng/mL, three freeze/thaw cycles, rat plasma, n = 3

Structure (SMILES) | AUC (0–36) ([1]; n = 6) | AUC (0–∞) ([1]; n = 6) | Cmax ([1]; n = 6) | MRT (0–36) ([1]; n = 6) | MRT (0–∞) ([1]; n = 6) | Tmax ([1]; n = 6) | t1/2 ([1]; n = 6) | Stability in rat plasma, Autosampler (12 h, 4 °C), Measured [2, 3] | Stability in rat plasma, Long term (7 day, –80 °C), Measured [2, 4] | Stability in rat plasma, Room temperature (4 h, 25 °C), Measured [2, 5] | Stability in rat plasma, Three freeze/thaw cycles, Measured [2, 6] | Stability in rat plasma, Autosampler (12 h, 4 °C), Measured [2, 7] | Stability in rat plasma, Long term (7 day, –80 °C), Measured [2, 8] | Stability in rat plasma, Room temperature (4 h, 25 °C), Measured [2, 9] | Stability in rat plasma, Three freeze/thaw cycles, Measured [2, 10] | Stability in rat plasma, Autosampler (12 h, 4 °C), Measured [2, 11] | Stability in rat plasma, Long term (7 day, –80 °C), Measured [2, 12] | Stability in rat plasma, Room temperature (4 h, 25 °C), Measured [2, 13] | Stability in rat plasma, Three freeze/thaw cycles, Measured [2, 14] | also measured
COc1ccc(-c2cc(=O)c3c(O)cc(O[C@@H]4O[C@H](CO[C@@H]5O[C@@H](C)[C@H](O)[C@@H](O)[C@H]5O)[C@@H](O)[C@H](O)[C@H]4O)cc3o2)cc1 [Linarin] | 12.04 ± 4.72 ng·h/mL | 12.04 ± 4.72 ng·h/mL | 12.78 ± 8.82 ng/mL | 4.26 ± 2.67 h | 4.26 ± 2.68 h | 0.16 ± 0.10 h | 2.81 ± 0.21 h | 1.1 ± 0.1 ng/mL | 1.1 ± 0.1 ng/mL | 1.0 ± 0.1 ng/mL | 1.0 ± 0.0 ng/mL | 10.2 ± 0.6 ng/mL | 10.2 ± 0.4 ng/mL | 11.9 ± 0.1 ng/mL | 11.6 ± 0.5 ng/mL | 208.5 ± 2.0 ng/mL | 221.0 ± 11.2 ng/mL | 223.3 ± 5.0 ng/mL | 219.4 ± 13.8 ng/mL | Tmax ([1]; n = 6, listed as linarin): ≤ 1 h; t1/2 ([1]; n = 6, listed as linarin): rapid elimination
C/C=C1/[C@H](O[C@@H]2O[C@H](CO)[C@@H](O)[C@H](O)[C@H]2O)OC=C(C(=O)OC)[C@H]1CC(=O)OCCc1ccc(O)c(O)c1 [Oleuropein] |  |  |  |  |  |  | rapid elimination |  |  |  |  |  |  |  |  |  |  |  |  | half-life ([1]; male, Sprague-Dawley, rat, n = 6): 3.36 h; AUC(0-t) ([1]; male, Sprague-Dawley, rat, n = 6, read-out: AUC (0–36)): 1.03 ± 0.75 ng·h/mL; Cmax ([1]; male, Sprague-Dawley, rat, n = 6, read-out: Cmax): 0.9 ± 0.82 ng/mL; MRT last ([1]; male, Sprague-Dawley, rat, n = 6, read-out: MRT (0–36)): 1.53 ± 1.25 h; MRT inf ([1]; male, Sprague-Dawley, rat, n = 6, read-out: MRT (0–∞)): 1.54 ± 1.25 h; AUC(0-inf) ([1]; male, Sprague-Dawley, rat, read-out: areas under the concentration-time curve (AUC0–∞)): 1.03 ± 0.75 ng·h/mL; Tmax ([1]; male, Sprague-Dawley, rat, po, 9.6 g/kg, n = 6, read-out: Tmax): 1.37 ± 1.6 h; Stability in rat plasma, Three freeze/thaw cycles, Measured ([2]; rat, plasma, 0.5 ng/mL): 0.5 ± 0.1 ng/mL; Stability in rat plasma, Three freeze/thaw cycles, Measured ([2]; rat, plasma, 5 ng/mL): 5.1 ± 0.2 ng/mL; Stability in rat plasma, Three freeze/thaw cycles, Measured ([2]; rat, plasma, 100 ng/mL): 103.6 ± 9.3 ng/mL; Stability in rat plasma, Room temperature (4 h, 25 °C), Measured ([2]; rat, plasma, 0.5 ng/mL): 0.5 ± 0.1 ng/mL; Stability in rat plasma, Room temperature (4 h, 25 °C), Measured ([2]; rat, plasma, 5 ng/mL): 4.3 ± 0.5 ng/mL; Stability in rat plasma, Room temperature (4 h, 25 °C), Measured ([2]; rat, plasma, 100 ng/mL): 108.6 ± 7.8 ng/mL; Stability in rat plasma, Autosampler (12 h, 4 °C), Measured ([2]; rat, plasma, 12 h, 0.5 ng/mL): 0.4 ± 0.1 ng/mL; Stability in rat plasma, Autosampler (12 h, 4 °C), Measured ([2]; rat, plasma, 12 h, 5 ng/mL): 0.5 ± 0.0 ng/mL; Stability in rat plasma, Autosampler (12 h, 4 °C), Measured ([2]; rat, plasma, 12 h, 100 ng/mL): 93.4 ± 8.6 ng/mL; Stability in rat plasma, Long term (7 day, –80 °C), Measured ([2]; rat, plasma, 168 h, 0.5 ng/mL): 1.0 ± 0.0 ng/mL; Stability in rat plasma, Long term (7 day, –80 °C), Measured ([2]; rat, plasma, 168 h, 5 ng/mL): 4.9 ± 0.3 ng/mL; Stability in rat plasma, Long term (7 day, –80 °C), Measured ([2]; rat, plasma, 168 h, 100 ng/mL): 113.9 ± 9.9 ng/mL
CC=C1[C@H](O[C@@H]2O[C@H](CO)[C@@H](O)[C@H](O)[C@H]2O)OC=C(C(=O)OC)[C@H]1CC(=O)OC[C@H]1O[C@@H](OCCc2ccc(O)cc2)[C@H](O)[C@@H](O)[C@@H]1O (stereo in doubt) [Specnuezhenide] | 48.62 ± 19.41 ng·h/mL | 57.19 ± 30.25 ng·h/mL | 13.33 ± 4.61 ng/mL | 11.02 ± 5.63 h | 19.29 ± 16.60 h | 0.46 ± 0.29 h | 20.27 ± 25.00 h | 1.1 ± 0.1 ng/mL | 1.0 ± 0.1 ng/mL | 1.0 ± 0.1 ng/mL | 1.0 ± 0.0 ng/mL | 9.8 ± 0.6 ng/mL | 10.3 ± 0.6 ng/mL | 10.7 ± 0.2 ng/mL | 11.5 ± 0.6 ng/mL | 198.2 ± 2.6 ng/mL | 225.6 ± 9.0 ng/mL | 212.7 ± 8.4 ng/mL | 219.0 ± 8.4 ng/mL | areas under the concentration-time curve (AUC0–∞) [1]: 57.2 ± 30.2 ng·h/mL; Tmax ([1]; n = 6, listed as specnuezhenide): ≤ 1 h
